The test system of one assay is ZO-1. In words: Immunofluorescence microscopy of tight junction-related protein ZO-1 in intestinal epithelial wall model (DSS-treated Caco-2). It is filed as cell-based, human. To be noted: 3% DSS, 24 hours; Chemical formula 1 0.3, 1 or 3 μM; 5-ASA 500 μM; FIG. 2. Here is the method: (§1) Caco-2 cell line (human intestinal epithelial cell line) and RAW 264.7 cell line, which is macrophage cells derived from mouse, were cultured at 37° C., 5% CO2 conditions by using DMEM (Dulbecco's Modified Eagle Medium, #11995065, Gibco) containing 10% FBS (fetal bovine serum, #16000044, Gibco) and 1% streptomycin/penicillin (#15140122, Gibco). For culturing the cells, the medium exchange was carried out every 2 to 3 days, and, once the cells are grown to the level of 80% in cell culture dish (#353003, Falcon), they were maintained by subculture.
(§2) The Caco-2 cells were adjusted to have density of 2×10^5 cells/ml. Suspension of the cells (0.5 ml) was aliquoted in apical side membrane phase of a transwell insert 12-well plate. To the basolateral side phase, 1.5 ml of culture medium were added. While replacing the medium with fresh one, once per 2 or 3 days, culture was continued for 21 days approximately, i.e., till to have cell division and suitable TEER (transepithelial electrical resistance) value of monolayer. […]
(§3) Thereafter, the cells were washed 3 times with 1×PBS for 5 minutes and treated for 5 minutes with Hoechst 33342 for staining the nucleus. […] After the mounting with ProLong™ Gold Antifade reagent, it was examined by confocal fluorescence microscopy.

Another assay relates to claudin1. In words: Immunofluorescence microscopy of tight junction-related protein claudin1 in intestinal epithelial wall model (DSS-treated Caco-2). Format: cell-based, human. To be noted: 3% DSS, 24 hours; Chemical formula 1 0.3, 1 or 3 μM; 5-ASA 500 μM; FIG. 4. As for the experimental part:
as §1, §2, §3

Structures are written as SMILES.

The values below come from patent publication US20240216317A1, “COMPOSITION FOR PREVENTING, AMELIORATING OR TREATING INFLAMMATORY BOWEL DISEASE COMPRISING COMPOUND ISOLATED FROM ISODON EXCISUS AS EFFECTIVE COMPONENT” (HEALINNOLS INC., priority 2022, published 2024).

Turning to `COC(=O)C[C@H](OC(=O)/C=C/c1ccc(O)c(O)c1)c1ccc(O)c(O)c1` [Compound 1, 3-[3,4-dihydroxyphenyl]acrylic acid 1-[3,4-dihydroxyphenyl]-2-methoxycarbonylethyl ester], in the assay on ZO-1, the “expression amount of ZO-1 compared to DSS model group” value is listed as “statistically significantly higher”. Besides, the “expression amount of claudin1 compared to DSS model group” value with claudin1 is “statistically significantly higher”.
Regarding `Nc1ccc(O)c(C(=O)O)c1` [Compound 5-ASA, 5-aminosalicylic acid, reference compound], the “expression amount of ZO-1 compared to DSS model group” value in the assay with ZO-1 is “statistically significantly higher”. In addition, the “expression amount of claudin1 compared to DSS model group” value with claudin1 is on record as “statistically significantly higher”.
